Key:
human FPR2 = target: T1, human FPR2 (Homo sapiens, UniProt P25090); experiment: FPR2 cyclic adenosine monophosphate (cAMP) assay; assay type: cell-based; conditions: CHO cells overexpressing human FPR2; forskolin 5 μM; inhibition of cAMP production; HTRF; read-out: hFPR2 cAMP2 EC50
T1 sequence (P25090 1-351): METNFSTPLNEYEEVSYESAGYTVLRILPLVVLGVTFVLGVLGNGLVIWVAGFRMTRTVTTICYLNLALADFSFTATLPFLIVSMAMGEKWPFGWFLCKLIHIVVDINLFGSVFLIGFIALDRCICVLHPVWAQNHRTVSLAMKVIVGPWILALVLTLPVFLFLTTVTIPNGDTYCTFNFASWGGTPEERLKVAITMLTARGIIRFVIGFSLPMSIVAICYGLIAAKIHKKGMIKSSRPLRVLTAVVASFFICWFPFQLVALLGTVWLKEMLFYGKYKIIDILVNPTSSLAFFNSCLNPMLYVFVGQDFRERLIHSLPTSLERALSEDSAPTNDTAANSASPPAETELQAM
Summary of the method: (§1)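 Gi-coupled activity is read as suppression of forskolin-stimulated cAMP (10 μM final for FPR1, 5 μM final for FPR2; IBMX 200 μM final) in recombinant CHO cells, 30 min incubation at rt, HTRF detection.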

human FPR1 = target: T2, human FPR1 (Homo sapiens, UniProt P21462); experiment: FPR1 cyclic adenosine monophosphate (cAMP) assay; assay type: cell-based; conditions: CHO cells overexpressing human FPR1; forskolin 10 μM; inhibition of cAMP production; HTRF; read-out: hFPR1 cAMP2 EC50
T2 sequence (P21462 1-350): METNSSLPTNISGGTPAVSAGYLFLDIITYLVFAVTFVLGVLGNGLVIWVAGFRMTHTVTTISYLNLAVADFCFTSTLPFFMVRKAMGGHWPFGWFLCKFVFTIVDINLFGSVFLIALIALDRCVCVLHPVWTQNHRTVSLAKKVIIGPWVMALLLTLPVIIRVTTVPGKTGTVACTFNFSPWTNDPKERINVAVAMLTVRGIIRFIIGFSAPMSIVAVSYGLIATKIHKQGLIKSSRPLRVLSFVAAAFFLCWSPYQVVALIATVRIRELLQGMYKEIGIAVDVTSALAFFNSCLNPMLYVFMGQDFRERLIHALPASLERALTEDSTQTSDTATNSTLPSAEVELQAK
Summary of the method: as §1

Row | Structure (SMILES) | EC50 (human FPR2) | EC50 (human FPR1)
1 | CCc1ccc(N2CC(C)(O)C2)nc1-n1c(=O)c(NC(=O)c2ccc(OC(F)F)cc2)c(-c2c(F)cc(OC)cc2F)n1C [Example 310, N-[5-(2,6-difluoro-4-methoxyphenyl)-2-[3-ethyl-6-(3-hydroxy-3-methylazetidin-1-yl)pyridin-2-yl]-1-methyl-3-oxo-2,3-dihydro-1H-pyrazol-4-yl]-4-(difluoromethoxy)benzamide] | 0.007 µM | > 10 µM
2 | COc1cc(F)c(-c2c(NC(=O)c3ccc(OC(F)F)cc3)c(=O)n(-c3nc(N4CC(C)(O)C4)ccc3C#N)n2C)c(F)c1 [Example 311, N-{2-[3-cyano-6-(3-hydroxy-3-methylazetidin-1-yl)pyridin-2-yl]-5-(2,6-difluoro-4-methoxyphenyl)-1-methyl-3-oxo-2,3-dihydro-1H-pyrazol-4-yl}-4-(difluoromethoxy)benzamide] | 0.005 µM | > 10 µM
3 | COc1cc(F)c(-c2c(NC(=O)c3ccc(OC(F)F)cc3)c(=O)n(-c3cccc(N4CC(C)(O)C4)n3)n2C)c(F)c1 [Example 312, N-[5-(2,6-difluoro-4-methoxyphenyl)-2-[6-(3-hydroxy-3-methylazetidin-1-yl)pyridin-2-yl]-1-methyl-3-oxo-2,3-dihydro-1H-pyrazol-4-yl]-4-(difluoromethoxy)benzamide] | 0.012 µM | 2 µM
4 | COc1ccc(-c2c(NC(=O)c3ccc(OC(F)F)cc3)c(=O)n(-c3nc(N4CCC(C)(O)CC4)ccc3C(F)(F)F)n2C)c(F)c1 [Example 313, 4-(difluoromethoxy)-N-[5-(2-fluoro-4-methoxyphenyl)-2-[6-(4-hydroxy-4-methylpiperidin-1-yl)-3-(trifluoromethyl)pyridin-2-yl]-1-methyl-3-oxo-2,3-dihydro-1H-pyrazol-4-yl]benzamide] | 0.001 µM | 0.21 µM
5 | COc1cc(F)c(-c2c(NC(=O)c3ccc(OC(F)F)cc3)c(=O)n(-c3nc(N4CCC(C)(O)CC4)ccc3C(F)(F)F)n2C)c(F)c1 [Example 314, N-[5-(2,6-difluoro-4-methoxyphenyl)-2-[6-(4-hydroxy-4-methylpiperidin-1-yl)-3-(trifluoromethyl)pyridin-2-yl]-1-methyl-3-oxo-2,3-dihydro-1H-pyrazol-4-yl]-4-(difluoromethoxy)benzamide] | 0.001 µM | 2.7 µM
6 | COc1cccc(-n2c(=O)c(NC(=O)c3ccc(OC(F)F)cc3)c(-c3ccc(OC(F)F)cc3)n2C)n1 [Example 315, 4-(difluoromethoxy)-N-{5-[4-(difluoromethoxy)phenyl]-2-(6-methoxypyridin-2-yl)-1-methyl-3-oxo-2,3-dihydro-1H-pyrazol-4-yl}benzamide] | 0.03 µM | 0.29 µM
7 | COc1cc(F)c(-c2c(NC(=O)c3ccc(OC(F)F)cc3)c(=O)n(-c3nc(C4CCN(S(C)(=O)=O)CC4)ccc3Cl)n2C)c(F)c1 [Example 316, N-{2-[3-chloro-6-(1-methanesulfonylpiperidin-4-yl)pyridin-2-yl]-5-(2,6-difluoro-4-methoxyphenyl)-1-methyl-3-oxo-2,3-dihydro-1H-pyrazol-4-yl}-4-(difluoromethoxy)benzamide] | 0.002 µM | > 5 µM
8 | Cn1c(-c2ccc(OC(F)F)cc2)c(NC(=O)c2ccc(OC(F)F)cc2)c(=O)n1-c1nc(Cl)ccc1C(F)(F)F [Example 317, N-{2-[6-chloro-3-(trifluoromethyl)pyridin-2-yl]-5-[4-(difluoromethoxy)phenyl]-1-methyl-3-oxo-2,3-dihydro-1H-pyrazol-4-yl}-4-(difluoromethoxy)benzamide] | 0.014 µM | 1.8 µM
9 | COc1cc(F)c(-c2c(NC(=O)c3ccc(OC(F)F)cc3)c(=O)n(-c3nc(S(C)(=O)=O)ccc3C(F)(F)F)n2C)c(F)c1 [Example 318, N-[5-(2,6-difluoro-4-methoxyphenyl)-2-[6-methanesulfonyl-3-(trifluoromethyl)pyridin-2-yl]-1-methyl-3-oxo-2,3-dihydro-1H-pyrazol-4-yl]-4-(difluoromethoxy)benzamide] | 0.007 µM | > 10 µM
10 | COc1cc(F)c(-c2c(NC(=O)c3ccc(OC(F)F)cc3)c(=O)n(-c3nc(C4CCN(S(C)(=O)=O)CC4)ccc3C(F)(F)F)n2C)c(F)c1 [Example 319] | 0.002 µM | > 10 µM
11 | COc1cc(F)c(-c2c(NC(=O)c3ccc(OC(F)F)cc3)c(=O)n(-c3cc(OC4CCOC4)cc(C)n3)n2C)c(F)c1 (stereo not drawn) [Example 320, N-(5-(2,6-Difluoro-4-methoxyphenyl)-1-methyl-2-(6-methyl-4-((tetrahydrofuran-3-yl)oxy)pyridin-2-yl)-3-oxo-2,3-dihydro-1H-pyrazol-4-yl)-4-(difluoromethoxy)benzamide] | 0.002 µM | 0.99 µM
12 | COc1cc(F)c(-c2c(NC(=O)c3ccc(OC(F)F)cc3)c(=O)n(-c3cc(OC4CCOC4)cc(C)n3)n2C)c(F)c1 (stereo not drawn) [Example 321, N-(5-(2,6-Difluoro-4-methoxyphenyl)-1-methyl-2-(6-methyl-4-((tetrahydrofuran-3-yl)oxy)pyridin-2-yl)-3-oxo-2,3-dihydro-1H-pyrazol-4-yl)-4-(difluoromethoxy)benzamide] | 0.004 µM | 0.39 µM

Further lines, results first:

Row | EC50 (human FPR2) | EC50 (human FPR1) | Structure (SMILES)
13 | 0.007 µM | > 10 µM | COc1cc(OCC(C)(C)O)nc(-n2c(=O)c(NC(=O)c3ccc(OC(F)F)cc3)c(-c3c(F)cc(OC)cc3F)n2C)c1 [Example 322]
14 | 0.014 µM | > 10 µM | COc1cc(F)c(-c2c(NC(=O)c3ccc(OC(F)F)cc3)c(=O)n(-c3cc(C4CCNCC4)cc(C)n3)n2C)c(F)c1 [Example 323, N-(5-(2,6-Difluoro-4-methoxyphenyl)-1-methyl-2-(6-methyl-4-(piperidin-4-yl)pyridin-2-yl)-3-oxo-2,3-dihydro-1H-pyrazol-4-yl)-4-(difluoromethoxy)benzamide]
15 | 0.005 µM | > 10 µM | COc1cc(F)c(-c2c(NC(=O)c3ccc(OC(F)F)cc3)c(=O)n(-c3cc(C4CCN(C)CC4)cc(C)n3)n2C)c(F)c1 [Example 324, N-(5-(2,6-Difluoro-4-methoxyphenyl)-1-methyl-2-(6-methyl-4-(1-methylpiperidin-4-yl)pyridin-2-yl)-3-oxo-2,3-dihydro-1H-pyrazol-4-yl)-4-(difluoromethoxy)benzamide]
16 | 0.003 µM | > 10 µM | COc1cc(OCC(C)(CO)CO)nc(-n2c(=O)c(NC(=O)c3ccc(OC(F)F)cc3)c(-c3c(F)cc(OC)cc3F)n2C)c1 [Example 325, N-(5-(2,6-Difluoro-4-methoxyphenyl)-2-(6-(3-hydroxy-2-(hydroxymethyl)-2-methylpropoxy)-4-methoxypyridin-2-yl)-1-methyl-3-oxo-2,3-dihydro-1H-pyrazol-4-yl)-4-(difluoromethoxy)benzamide]
17 | 0.058 µM | 1.6 µM | COc1cc(O)nc(-n2c(=O)c(NC(=O)c3ccc(OC(F)F)cc3)c(-c3c(F)cc(OC)cc3F)n2C)c1 [Example 326, N-(5-(2,6-Difluoro-4-methoxyphenyl)-2-(6-hydroxy-4-methoxypyridin-2-yl)-1-methyl-3-oxo-2,3-dihydro-1H-pyrazol-4-yl)-4-(difluoromethoxy)benzamide]
18 | 0.023 µM | 0.059 µM | COc1cc(F)c(-c2c(NC(=O)c3ccc(OC(F)F)cc3)c(=O)n(-c3cc(OCC4(C)COC4)cc(C)n3)n2C)c(F)c1 [Example 327, N-(5-(2,6-Difluoro-4-methoxyphenyl)-1-methyl-2-(6-methyl-4-((3-methyloxetan-3-yl)methoxy)pyridin-2-yl)-3-oxo-2,3-dihydro-1H-pyrazol-4-yl)-4-(difluoromethoxy)benzamide]
19 | 0.015 µM | 1.6 µM | COc1cc(F)c(-c2c(NC(=O)c3ccc(OC(F)F)cc3)c(=O)n(-c3cc(C#N)cc(C)n3)n2C)c(F)c1 [Example 328, N-(2-(4-Cyano-6-methylpyridin-2-yl)-5-(2,6-difluoro-4-methoxyphenyl)-1-methyl-3-oxo-2,3-dihydro-1H-pyrazol-4-yl)-4-(difluoromethoxy)benzamide]
20 | 0.004 µM | > 10 µM | COc1cc(OCCCO)nc(-n2c(=O)c(NC(=O)c3ccc(OC(F)F)cc3)c(-c3c(F)cc(OC)cc3F)n2C)c1 [Example 329, N-(5-(2,6-Difluoro-4-methoxyphenyl)-2-(6-(3-hydroxypropoxy)-4-methoxypyridin-2-yl)-1-methyl-3-oxo-2,3-dihydro-1H-pyrazol-4-yl)-4-(difluoromethoxy)benzamide]
21 | 0.006 µM | > 10 µM | COc1cc(F)c(-c2c(NC(=O)c3ccc(OC(F)F)cc3)c(=O)n(-c3cccnc3OC)n2C)c(F)c1 [Example 330, N-(5-(2,6-Difluoro-4-methoxyphenyl)-2-(2-methoxypyridin-3-yl)-1-methyl-3-oxo-2,3-dihydro-1H-pyrazol-4-yl)-4-(difluoromethoxy)benzamide]

From patent US12577206B2 (BRISTOL-MYERS SQUIBB COMPANY, priority 2020, dated 2026)
